Measured values as given in US5496856A, “Aspartame for its application as a therapeutically active substance” (priority 1993, dated 1996).

How the values were obtained:
DNA = DNA adducts by postlabeling with ATP gamma 32P in organs (genotoxicity); type: in vivo, rats; conditions: OTA 289 μg/kg every 48 h, 3 weeks
Protocol: The animals used in this experiment are male rats of the Wistar strain weighing 160±10 g.
The aspartame is administered by gavage, at the same time as the ochratoxin A, every 48 hours for 3 weeks.
The control and treated rats are placed in a metabolic cage for 24 hours for urine sampling and then sacrificed.
The organs of the same animals were used for extraction of the DNA, which was analyzed by the technique of postlabeling with ATP gamma 32P in order to evaluate the genotoxicity by the presence of adducts with DNA bases.

human plasma proteins [1] = assay: OTA binding to human plasma proteins, condition (i): aspartame in upper (plasma) compartment; type: in vitro ADME
Protocol: (§1) A further study was performed in order to determine the effect of aspartame on OTA binding on human plasma proteins in vitro.
(§2) An in-vitro study was performed on plasma samples obtained from healthy human volunteers, from a French blood bank (Centre de transfusion sanguine in Bordeaux), using citrate as anticoagulant. Blood samples were centrifuged at 1800 g for 30 minutes. This pooled human plasma contained 41±3 g of proteins per liter.
(§3) Static diffusion cells (polypropylene, homemade according to the model provided by Nalgene, USA) containing two compartments (upper and lower) separated by a dialysing membrane having a 10 000 D exclusion limit (Sigma Chemical, USA) were used. This membrane allows OTA and aspartame diffusion and not protein diffusion.
(§4) A human plasma sample was placed in the upper compartment and a medium (RPMI 1640, Sigma chemical, USA) in the lower one.
(§5) The plasma binding properties of OTA were evaluated under two different conditions:
(i) The aspartame at a concentration of 10 μg/ml was added in the upper compartment containing human plasma proteins before introducing OTA at three different concentrations (20, 100, and 500 μg/ml) in the lower compartment;
(§6) OTA concentration in the upper compartment was determined by HPLC (Mobile phase: methanol, acetonitrile, acetic acid, sodium acetate 5 mM (300: 300: 400: 14 v/v/v/v); injection volume 50 μl; flow rate 1 ml/min; run time for one cycle: 10 min and fluorescence detection (excitation at 340 nm and emission at 465 nm).
(§7) Before extraction of OTA from the plasma, all the studied samples of plasma, which had already fixed OTA, were dialysed against free OTA RPMI medium for at least 15 minutes, one or several times, until no more OTA was found in the lower compartment.
(§8) The results obtained under condition (i) as defined hereinabove are reported in Table I, whereas the results obtained under condition (ii) are reported in Table II.

human plasma proteins [2] = assay: OTA binding to human plasma proteins, condition (ii): OTA with or without aspartame in lower compartment; type: in vitro ADME
Protocol: as §1, §2, §3, §4, §5
(ii) The upper compartment contained human plasma proteins only and OTA (20, 100 and 500 μg/ml) was added into the lower compartment alone or concommitantly with 10 μg/ml aspartame.
as §6, §7, §8
Under condition (ii) (Table II), the aspartame was put in the same compartment as OTA in the non-plasmatic compartment to mimic the stomach (the ration OTA/aspartame=1.5 to 36).

all animal species = conditions: cited from earlier work; for toxicity: background statement
[3] = cited from earlier work; for efficacy in treatment of ochratoxicosis: doses of the order of several grams per day

Compound: C[C@@H]1Cc2c(Cl)cc(C(=O)N[C@@H](Cc3ccccc3)C(=O)O)c(O)c2C(=O)O1 [OTA, chlorodihydroisocoumarinylphenylalanine, reference compound]
- DNA adducts in organs (liver, kidney, spleen, etc.), OTA-treated animals (DNA): Adducts are detected in large numbers
- Quantities of OTA bound to plasma proteins, OTA alone (Table I) (human plasma proteins [1]; OTA 20 μg/ml, 30 min): 215 ± 11 ng/mL
- Quantities of OTA bound to plasma proteins, OTA alone (Table I) (human plasma proteins [1]; OTA 20 μg/ml, 60 min): 431 ± 18 ng/mL
- Quantities of OTA bound to plasma proteins, OTA alone (Table I) (human plasma proteins [1]; OTA 20 μg/ml, 120 min): 772 ± 25 ng/mL
- Quantities of OTA bound to plasma proteins, OTA alone (Table I) (human plasma proteins [1]; OTA 100 μg/ml, 30 min): 442 ± 21 ng/mL
- Quantities of OTA bound to plasma proteins, OTA alone (Table I) (human plasma proteins [1]; OTA 100 μg/ml, 60 min): 739 ± 17 ng/mL
- Quantities of OTA bound to plasma proteins, OTA alone (Table I) (human plasma proteins [1]; OTA 100 μg/ml, 120 min): 1231 ± 17 ng/mL
- Quantities of OTA bound to plasma proteins, OTA alone (Table I) (human plasma proteins [1]; OTA 500 μg/ml, 30 min): 556 ± 15 ng/mL
- Quantities of OTA bound to plasma proteins, OTA alone (Table I) (human plasma proteins [1]; OTA 500 μg/ml, 60 min): 1175 ± 71 ng/mL
- Quantities of OTA bound to plasma proteins, OTA alone (Table I) (human plasma proteins [1]; OTA 500 μg/ml, 120 min): 1744 ± 112 ng/mL
- Quantities of OTA bound to plasma proteins, OTA alone (Table II) (human plasma proteins [2]; OTA 20 μg/ml, 30 min): 163 ± 42 ng/mL
- Quantities of OTA bound to plasma proteins, OTA alone (Table II) (human plasma proteins [2]; OTA 20 μg/ml, 60 min): 488 ± 41 ng/mL
- Quantities of OTA bound to plasma proteins, OTA alone (Table II) (human plasma proteins [2]; OTA 20 μg/ml, 120 min): 774 ± 43 ng/mL
- Quantities of OTA bound to plasma proteins, OTA alone (Table II) (human plasma proteins [2]; OTA 100 μg/ml, 30 min): 491 ± 39 ng/mL
- Quantities of OTA bound to plasma proteins, OTA alone (Table II) (human plasma proteins [2]; OTA 100 μg/ml, 60 min): 983 ± 48 ng/mL
- Quantities of OTA bound to plasma proteins, OTA alone (Table II) (human plasma proteins [2]; OTA 100 μg/ml, 120 min): 1296 ± 61 ng/mL
- Quantities of OTA bound to plasma proteins, OTA alone (Table II) (human plasma proteins [2]; OTA 500 μg/ml, 30 min): 539 ± 41 ng/mL
- Quantities of OTA bound to plasma proteins, OTA alone (Table II) (human plasma proteins [2]; OTA 500 μg/ml, 60 min): 1347 ± 92 ng/mL
- Quantities of OTA bound to plasma proteins, OTA alone (Table II) (human plasma proteins [2]; OTA 500 μg/ml, 120 min): 1899 ± 89 ng/mL

Compound: C[C@@H]1Cc2c(Cl)cc(C(=O)N[C@@H](Cc3ccc(O)cc3)C(=O)O)c(O)c2C(=O)O1 [Tyrosine-OTA]
- genotoxic effects (all animal species; metabolite of OTA, Creppy et al., Arch. Toxicol. 64, 279-284 (1990)): seems to be one of the metabolites responsible for the genotoxic effects

Compound: C[C@@H]1Cc2ccc(C(=O)N[C@@H](Cc3ccccc3)C(=O)O)c(O)c2C(=O)O1 [ochratoxin B]
- toxicity (all animal species): does not seem to be toxic

Compound: CCOC(=O)[C@H](Cc1ccccc1)NC(=O)c1cc(Cl)c2c(c1O)C(=O)O[C@H](C)C2 [ochratoxin C, ethyl ester of ochratoxin A]
- toxicity (all animal species): effects comparable to those of ochratoxin A

Compound: N[C@@H](Cc1ccccc1)C(=O)O [phenylalanine]
- action in chronic intoxication ([3]; chronic intoxication): very inadequate, if not non-existent
- efficacy in treatment of ochratoxicosis [3]: not totally satisfactory
- acute toxic effects of OTA and inhibition of protein synthesis ([3]; in vivo and in vitro): makes it possible to prevent the acute toxic effects and the inhibition of protein synthesis

Compound: O=C(O)O [sodium bicarbonate]
- efficacy in treatment of ochratoxicosis [3]: still poor
